Experimental data published in patent publication US7906510B2, “Amide derivative and pharmaceutical composition containing the same” (Dainippon Sumito Pharma Co., Ltd., priority 2008, dated 2011).
Where a name gives a salt, the structure may show the parent alone. Read-outs that look alike come from different tables or passages of the source.

How the values were obtained:
5-HT4 receptor = target: T1, 5-HT4 receptor (Cavia porcellus, UniProt O70528); assay: Serotonin 4 (5-HT4) receptor binding assay; parameters: species or system guinea pig
T1 construct: the mixture was suspended to give receptor membrane preparations; from tissue; host or cells: guinea pig (Slc-Hartley) brain striatum membranes
Method: 5-HT4 receptor binding assay and preparations of receptor membrane preparations were carried out according to a method of Grossman et al. [see British J. Pharmacol., (1993) 109, 618].
Slc-Hartley guinea pigs (body weight 300 to 400 g) were decapitated to remove brain rapidly, and striatum was isolated. To the obtained tissues were added fifteenfold of Hepes buffer (50 mM, pH7.4, 4° C.), and the mixture was homogenized by Teflon® homogenizer and centrifuged at 48,000×g (4° C.) for 15 minutes. To the resulting precipitate was added Hepes buffer (1 ml) to 30 mg by wet weight of tissues, and the mixture was suspended to give receptor membrane preparations.
0.1 nM [^3H]-GR113808 {chemical name: [1-[2-(methylsulfonylamino)ethyl]-4-piperidinyl]methyl 1-methylindole-3-carboxylate}, receptor membrane preparations, and Hepes buffer (50 mM, pH7.4, 4° C., 1 ml) containing test compounds or 30 μM serotonin were placed in an assay tube, and incubated at 37° C. for 30 minutes. On quenching the reaction, the mixture was rapidly filtered on whatman GF/B filter, which was presoaked in 0.1% polyethyleneimine for 1 hour, by using Brandel cell Harvester, and washed with ice-cooled 50 mM Tris-HCl (pH7.7, 4 ml) three times. To the filter after filtration was added ACS II scintillator, and then a radioactivity was determined by a liquid scintillation counter.
50% inhibition concentrations (IC50) were determined from inhibition rates of test compounds to specific bindings which were obtained by subtracting nonspecific bindings from total binding amounts of [^3H]-GR113808.

Male Slc-ddy mice = assay: Mouse defecation assay; format: in vivo; parameters: key: −: No Effect; +: Moderately Improved (p<0.05); ++: Significantly Improved (p<0.01); conditions: 3 mg/kg orally; stool weight 30, 60 and 120 minutes after administration; Dunnett assay vs control
Method: Male Slc-ddy mice (body weight 25 to 30 g) were used and allowed to ingest food and water ad libitum until commencement of experiments.
A group of 25 mice was divided into 5 groups, which 5 mice each per group were respectively transferred to fasting cages to adjust to new environments for about 1 hour. Then, each mouse was orally administered 3 mg/kg suspension of a test compound in 0.5% tragacanth solution to measure each stool weight of each group 30, 60, and 120 minutes after oral administration.
Efficacies were evaluated by Dunnett assay between test compounds and control.

[1] = test system: Male Slc-Hartley guinea pigs; assay: Electrocardiographic assay for guinea pig; conditions: dose extending 5% of QTc; i.v. infusion for 15 minutes, anesthetized guinea pigs, ECG lead II
Method: Male Slc-Hartley guinea pigs were anesthetized to determine electrocardiogram (lead II) under artificial respiration. A drug solution was continuously and intravenously infused via cannula indwelled in cervical veins at a flow rate: 0.2 ml/kg/min for 15 minutes.

[2] = inhibition of specific binding of 0.1 nM [3H]-GR113808, guinea pig striatum membrane preparations, 37° C., 30 minutes, read-out: IC50

T1 sequence (O70528 whole entry): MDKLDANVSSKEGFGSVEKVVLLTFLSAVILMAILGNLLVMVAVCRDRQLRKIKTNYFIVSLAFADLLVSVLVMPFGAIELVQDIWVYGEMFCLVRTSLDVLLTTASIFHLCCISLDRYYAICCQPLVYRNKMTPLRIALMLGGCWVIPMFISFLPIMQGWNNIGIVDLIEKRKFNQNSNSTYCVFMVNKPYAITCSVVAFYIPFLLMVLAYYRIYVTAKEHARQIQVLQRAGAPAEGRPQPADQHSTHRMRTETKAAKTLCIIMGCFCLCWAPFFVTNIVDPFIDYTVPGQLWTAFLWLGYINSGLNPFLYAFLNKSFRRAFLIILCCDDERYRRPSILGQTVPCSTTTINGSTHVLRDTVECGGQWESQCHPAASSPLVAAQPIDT

Row | IC50 (5-HT4 receptor; [2]) | Compound | Effect (Male Slc-ddy mice) | ED5% (mg/kg,i.v.) [1] | IC50 (5-HT4 receptor)
1 | 9.18 nM | CC(=O)N1CCC(CN2CCO[C@@H](CNC(=O)c3cc(Cl)c(N)c4c3OCC4)C2)CC1 [Example 231] | ++ |  | 
2 | 0.64 nM | COc1cc(N)c(Cl)cc1C(=O)NC[C@H]1CN(CC2CCN(C(=O)c3ccc(C#N)cc3)CC2)CCO1 [Example 230] | ++ |  | 
3 | 12.1 nM | Nc1c(Cl)cc(C(=O)NC[C@H]2CN(CC3CCN(C(=O)CO)CC3)CCO2)c2c1CCO2 [Example 233, (S)-4-amino-5-chloro-N-[{4-[(1-hydroxyacetyl-4-piperidinyl)methyl]-2-morpholinyl}methyl]-2,3-dihydrobenzo[b]furan-7-carboxamide] | ++ |  | 
4 | 1.95 nM | COc1cccc(C(=O)N2CCC(CN3CCO[C@@H](CNC(=O)c4cc(Cl)c(N)cc4OC)C3)CC2)c1 [Example 124] | + | >30 mg/kg | 
5 | 1.97 nM | COc1cc(N)c(Cl)cc1C(=O)NC[C@H]1CN(CC2CCN(C(=O)Nc3ccc(Cl)c(Cl)c3)CC2)CCO1 [Example 58] | + |  | 
6 | 45.2 nM | COc1cc(N)c(Cl)cc1C(=O)NC[C@H]1CN(CC2CCN(C(C)=O)CC2)CCO1 [Example 221] | ++ | >30 mg/kg | 
7 | 5.91 nM | COc1cc(N)c(Cl)cc1C(=O)NC[C@H]1CN(CC2CCN(C(=O)Nc3cccc(C(F)(F)F)c3)CC2)CCO1 [Example 54] | + |  | 
8 | 2.05 nM | COc1cc(N)c(Cl)cc1C(=O)NC[C@H]1CN(CC2CCN(C(=O)c3cccc(C)c3)CC2)CCO1 [Example 119] | + | >30 mg/kg | 
9 | 13.1 nM | COc1cc(N)c(Cl)cc1C(=O)NC[C@H]1CN(CC2CCN(C(=O)c3cocn3)CC2)CCO1 [Example 228] | ++ | >30 mg/kg | 
10 | 2.8 nM | COC(=O)N1CCC(CN2CCOC(CNC(=O)c3cc(Cl)c(N)c4c3OCC4)C2)CC1 (centres unmarked) [Example 138] | ++ |  | 
11 | 18.1 nM | COc1cc(N)c(Cl)cc1C(=O)NC[C@H]1CN(CC2CCN(C(=O)c3nc[nH]n3)CC2)CCO1 [Example 229] | ++ | >30 mg/kg | 
12 | 6.04 nM | CN(C)C(=O)N1CCC(CN2CCOC(CNC(=O)c3cc(Cl)c(N)c4c3OCC4)C2)CC1 (centres unmarked) [Example 135, 4-amino-5-chloro-N-[{4-[(1-dimethylcarbamoyl-4-piperidinyl)methyl]-2-morpholinyl}methyl]-2,3-dihydrobenzo[b]furan-7-carboxamide 1.5 fumarate] | ++ | >30 mg/kg | 
13 | 6.09 nM | COc1cc(N)c(Cl)cc1C(=O)NC[C@H]1CN(CC2CCN(C(=O)c3ccc(OC(C)=O)cc3)CC2)CCO1 [Example 169] | ++ | >30 mg/kg | 
14 | 11.9 nM | COc1cc(N)c(Cl)cc1C(=O)NC[C@H]1CN(CC2CCN(S(C)(=O)=O)CC2)CCO1 [Example 94] | ++ | >30 mg/kg | 
15 | 14.5 nM | COCCC(=O)N1CCC(CN2CCO[C@@H](CNC(=O)c3cc(Cl)c(N)cc3OC)C2)CC1 [Example 224] | ++ | >30 mg/kg | 
16 |  | C=CCOC(=O)N1CCC(CN2CCO[C@@H](CNC(=O)c3cc(Cl)c(N)cc3OC)C2)CC1 [Example 100] | ++ | >30 mg/kg | 
17 |  | COC(=O)N1CCC(CN2CCO[C@@H](CNC(=O)c3cc(Cl)c(N)cc3OC)C2)CC1 [Example 92] | + | >30 mg/kg | 
18 |  | COc1cc(N)c(Cl)cc1C(=O)NC[C@H]1CN(CC2CCN(C(=O)N(C(C)C)C(C)C)CC2)CCO1.Cl [Example 88] | ++ |  | 
19 | 7.34 nM | Nc1c(Cl)cc(C(=O)NC[C@H]2CN(CC3CCN(C(=O)C4CCOC4)CC3)CCO2)c2c1CCO2 (some centres unmarked) [Example 232] | ++ |  | 
20 | 1.62 nM | COc1cc(N)c(Cl)cc1C(=O)NC[C@H]1CN(CC2CCN(C(=O)c3cccc4c3OCC4)CC2)CCO1 [Example 177] |  |  | 
21 | 2.48 nM | COc1cc(N)c(Cl)cc1C(=O)NC[C@H]1CN(CC2CCN(C(=O)c3ccc(Cl)cc3)CC2)CCO1 [Example 115] | + |  | 
22 |  | COc1cc(N)c(Cl)cc1C(=O)N[C@H]1CCN(CCCOc2ccc(F)cc2)C[C@H]1OC (relative stereo) [Cisapride, cis-4-amino-5-chloro-N-[1-[3-(4-fluorophenoxy)propyl]-3-methoxy-4-piperidinyl]-2-methoxybenzamide, reference compound] | − | 0.3 mg/kg | 

Row | IC50 (5-HT4 receptor; [2]) | Compound | Effect (Male Slc-ddy mice) | ED5% (mg/kg,i.v.) [1] | IC50 (5-HT4 receptor)
23 | 2.63 nM | COc1cc(N)c(Cl)cc1C(=O)NC[C@H]1CN(CC2CCN(C(=O)c3ccc(C)cc3)CC2)CCO1 [Example 120] |  |  | 
24 | 6.98 nM | CCOc1cc(N)c(Cl)cc1C(=O)NCC1CN(CC2CCN(C(=O)N3CCCC3)CC2)CCO1 (centres unmarked) [Example 90, 4-amino-5-chloro-2-ethoxy-N-[{4-[(1-(1-pyrrolidinecarbonyl)-4-piperidinyl)-methyl]-2-morpholinyl}methyl]benzamide 1.5 fumarate] |  |  | 
25 | 0.87 nM | COc1cc(N)c(Cl)cc1C(=O)NC[C@H]1CN(CC2CCN(C(=O)c3ccc(N(C)C)cc3)CC2)CCO1 [Example 172] |  |  | 
26 |  | COc1cc(N)c(Cl)cc1C(=O)NC[C@H]1CN(CC2CCN(S(=O)(=O)N(C)C)CC2)CCO1.O=C(O)/C=C/C(=O)O [Example 80] | + | >30 mg/kg | 
27 | 6.2 nM | COc1cc(N)c(Cl)cc1C(=O)NC[C@H]1CN(CC2CCN(C(=O)C(C)=O)CC2)CCO1 [Example 227] | ++ |  | 
28 | 7.33 nM | COc1cc(N)c(Cl)cc1C(=O)NC[C@H]1CN(CC2CCN(C(=O)N3CCCC3)CC2)CCO1 [Example 89] | + |  | 
29 | 3.7 nM | COc1ccc(CNC(=O)N2CCC(CN3CCO[C@@H](CNC(=O)c4cc(Cl)c(N)cc4OC)C3)CC2)cc1 [Example 61] |  |  | 
30 | 7.9 nM | C=CCCCCC(=O)N1CCC(CN2CCOC(CNC(=O)c3cc(Cl)c(N)cc3OCC)C2)CC1 (racemic) [Example 162] |  |  | 
31 | 1.94 nM | COc1cc(N)c(Cl)cc1C(=O)NC[C@H]1CN(CC2CCN(C(=O)Nc3ccccc3)CC2)CCO1 [Example 52] | − |  | 
32 | 2.32 nM | CCOc1cc(N)c(Cl)cc1C(=O)NC[C@H]1CN(CC2CCN(C(=O)c3ccc(OC)cc3)CC2)CCO1 [Example 126] |  |  | 
33 | 18.6 nM | COc1cc(N)c(Cl)cc1C(=O)NC[C@H]1CN(CC2CCN(C(=O)CC#N)CC2)CCO1 [Example 223] | ++ |  | 
34 | 8.6 nM | COc1cc(N)c(Cl)cc1C(=O)NC[C@H]1CN(CC2CCN(C(=O)NCCc3ccccc3)CC2)CCO1 [Example 63] |  |  | 
35 | 9.62 nM | CCCOC(=O)N1CCC(CN2CCO[C@@H](CNC(=O)c3cc(Cl)c(N)cc3OC)C2)CC1 [Example 98] |  |  | 
36 |  | COCC(=O)N1CCC(CN2CCO[C@@H](CNC(=O)c3cc(Cl)c(N)cc3OC)C2)CC1 [Example 132] | ++ | >30 mg/kg | 
37 | 2.9 nM | COc1cc(N)c(Cl)cc1C(=O)NC[C@H]1CN(CC2CCN(C(=O)Nc3cccc(C(C)=O)c3)CC2)CCO1 [Example 56] |  |  | 
38 |  | COc1cc(N)c(Cl)cc1C(=O)NC[C@H]1CN(CC2CCN(C(=O)Oc3ccccc3)CC2)CCO1 [Example 106] |  |  | 6.12 nM
39 | 2.16 nM | COc1cc(N)c(Cl)cc1C(=O)NC[C@H]1CN(CC2CCN(C(=O)c3cccc(N(C)C)c3)CC2)CCO1 [Example 171] |  |  | 
40 | 8.52 nM | COC(=O)c1ccc(C(=O)N2CCC(CN3CCO[C@@H](CNC(=O)c4cc(Cl)c(N)cc4OC)C3)CC2)cc1 [Example 174] |  |  | 
41 | 4.52 nM | COc1cc(N)c(Cl)cc1C(=O)NC[C@H]1CN(CC2CCN(C(=O)c3ccc(O)cc3)CC2)CCO1 [Example 202] |  |  | 
42 | 1.86 nM | COc1cc(N)c(Cl)cc1C(=O)NC[C@H]1CN(CC2CCN(C(=O)NCc3ccccc3C)CC2)CCO1 [Example 60] |  |  | 
43 | 4.45 nM | COc1cc(N)c(Cl)cc1C(=O)NC[C@H]1CN(CC2CCN(C(=O)c3cccc(O)c3)CC2)CCO1 [Example 201] |  |  | 
44 |  | COc1cc(N)c(Cl)cc1C(=O)NCC1CN(CC2CCN(C(=O)n3ccnc3)CC2)CCO1 [Example 207, (S)-4-amino-5-chloro-N-[{4-[(1-imidazolecarbonyl-4-piperidinyl)methyl]-2-morpholinyl}methyl]-2-methoxybenzamide] | ++ | >30 mg/kg | 
